Assay [1] deals with Fusarium culmorum. The assay can be described thus: Activity against Fusarium culmorum in the microtiterplate test. The note with it: 31 ppm active substance; MTP measured at 405 nm 7 days after inoculation, 18° C. Type of assay: cell-based. The method, then:
The active compounds were formulated separately as a stock solution having a concentration of 10000 ppm in dimethyl sulfoxide.
The stock solutions were mixed according to the ratio, pipetted onto a micro titer plate (MTP) and diluted with water to the stated concentrations. A spore suspension of Fusarium culmorum in an aqueous biomalt or yeast-bactopeptone-glycerine or DOB solution was then added. The plates were placed in a water vapor-saturated chamber at a temperature of 18° C. Using an absorption photometer, the MTPs were measured at 405 nm 7 days after the inoculation.

Assay [2] has as its system Alternaria solani. Description: Activity against the early blight pathogen Alternaria solani in the microtiterplate test. Type of assay: cell-based. The note with it: 31 ppm active substance; MTP measured at 405 nm 7 days after inoculation, 18° C.
For assay [3], the system named is Sclerotinia sclerotiorum. The assay can be described thus: Preventative fungicidal control of white mold on oilseed rape caused by Sclerotinia sclerotiorum. The note with it: 100 g/ha, assessed after 14 days, untreated plants 100% infected. It counts as in vivo. Here is the method:
The compound was dissolved in a mixture of acetone and/or dimethylsulfoxide and the wetting agent/emulsifier Wettol, which is based on ethoxylated alkylphenoles, in a ratio (volume) solvent-emulsifier of 99 to 1 to give a total volume of 5 ml. Subsequently, water was added to total volume of 100 ml. This stock solution was then diluted with the described solvent-emulsifier-water mixture to the final concentration given in the table below. Oilseed rapes were grown in pots to the 13 to 14 leaf stage. These plants were sprayed to run-off with previously described spray solution, containing the concentration of active ingredient or their mixture mentioned in the table below. The plants could air-dry. The next day the applicated rape petals were fixed with 25 μl of 2.5% methylcellulose on leaf 1 and 2. 25 μl of a spore suspension of Sclerotinia sclerotiorum was pipetted on each fixed rape petal. After 14 days at 20° C. and a relative humidity of 60% the extent of fungal attack on the leaves was visually assessed as % diseased leaf area.

Consider `Cc1cc(C2c3ccccc3OCC3(CC3)N2C)cnc1C(F)F` (centres unmarked) [Ex-1, 5-(6-(difluoromethyl)-5-methylpyridin-3-yl)-4-methyl-4,5-dihydro-2H-spiro[benzo[f][1,4]oxazepine-3,1′-cyclopropane]], for which the entries for the “growth of the pathogen” value in assay [1] and in assay [2] were 1% and 23%, respectively. Regarding `Cc1cc(C2NC(C)C(C)(C)Oc3c(F)cccc32)cnc1C(F)F` (mixture of isomers) [Ex-7], the “growth of the pathogen (% diseased leaf area)” value in assay [3] is “at most 1%”. For the same compound, the “growth of the pathogen” value in assay [2] amounted to 23%.

As for `Cc1cc(C2NC(C)C(C)(C)Oc3c(F)cccc32)cnc1C` (mixture of isomers) [Ex-6], the “growth of the pathogen” value in assay [2] is on record as 23%.

(Values after patent US20260165325A1, “NEW SUBSTITUTED TETRAHYDROBENZOXAZEPINE” (BASF SE, priority 2022, published 2026).)
